From patent publication US20240279304A1, “DSG2 COMPOSITIONS AND METHODS” (Arvada Therapeutics, Inc., priority 2021, published 2024)
Entries after “also recorded” stand apart in the source; their conditions may differ.

Test system: human iPSC cardiomyocytes
Assay: CiPA multielectrode array (MEA) assay, sodium spike
Format: cell-based
Details: 1.1 μg/mL DSG2FP #1; anti-DSG2 antibodies 0.5 μg/mL
Protocol: To determine the effect of anti-DSG2 antibodies in cardiomyocytes, the cardiac in vitro proarrhythmia (CiPA) assay was performed (Sager et al. Am Heart J 2014; 167:292-300; the contents of which are herein incorporated by reference in its entirety). CiPA is envisioned to consist of four components: (1) an evaluation of the effects of test agents on cardiac ion channel assays; (2) in silico modeling of the cardiac action potential based on the ion channel results to integrate the data with cardiac function; (3) experimental measurement of test agent effects in human ventricular myocytes to confirm the modeling result; and (4) scoring the results. […] The sodium spike quantified below is a measurement of the specific sodium channel current in the cardiomyocyte and is also described in Blinova K, et al. Cell Rep. […] The parameters evaluated include measuring a change in the spike in the component of electrical signal propagation (e.g. sodium spike) and cell index—a function of cell impedance and cell number. […]
Commercially available anti-DSG2 antibodies were tested in the cardiomyocyte CiPA assay. […] The voltage (μV) is measured at time intervals of 0, 1 hour, 12 hours, 24 hours, 48 hours, 72 hours, and 96 hours. […]

Question: Which “rescue of the effect of anti-DSG2 antibodies on cardiomyocyte sodium spike (in words)” value does the source give for “DSG2FP#1: R&D Systems DSG2 extracellular domain (49-608 of SEQ ID NO: 30); linker IEGRMD; amino acids 100-330 of IgG1” here?
Answer: rescued; also recorded: completely blocks the effect of the anti-DSG2 antibodies on the sodium spike
